Results as given in patent US10000469B2, “Heat shock protein 70 (hsp-70) receptor ligands” (Duke University, priority 2014, dated 2018).
Entries after “also recorded” stand apart in the source; their conditions may differ.

Legend:
[1] = system: MCF10A; experiment: Cell proliferation, MCF10A; type: cell-based; conditions: non tumorigenic MCF10A
Procedure: Cell Proliferation: Cell proliferation was determined using a Hoechst stain (Sigma, St. Louis, Mo.) to quantify DNA. 5,000 cells of the designated cell line were plated in 96 well plates and treated the next day, designated as time point 0, with the indicated concentration of the specified compound maintained for the duration of the assay. At the indicated time points the media was removed and plated frozen at −80° C. Double distilled H2O was then added and the plates were incubated at 37° C. for 1 hour. After 1 hour the plates were frozen at −80° C. After freezing the plates were thawed and Hoechst stain was diluted 1:1000 in THE buffer (10 mM Tris, 2M NaCl, 1 mM Na2EDTA). The final fluorescence was measured on the Victor X2 plate reader at 355/460 nm, and cell proliferation was determined with the formula: % Cell Proliferation=100×(Sample fluorescence−background fluorescence)/(Control fluorescence−background fluorescence).

[2] = target: T1, Hsc70 (Homo sapiens, UniProt P11142); experiment: Thermofluor assay, purified Hsc70; type: binding; conditions: ±ATP
T1 construct: His tag (cleaved yes); made in house
Procedure: Protein Purification: Plasmids were provided for human HSPA1A, HSPA8, and HSPA1A C306D. Plasmids were transformed in Rosetta competent cells and single colonies were picked from streaked LB/ampicillin/chloramphenicol plates. Cultures were grown at 37° C. for 4-6 hours, were cooled to 15° C. and expression was induced overnight with 200 uM isopropyl 1-thio-β-D-galactopyranoside. Cells were pelleted and resuspended in Ni-lysis buffer (50 mM Na2HPO4, 300 mM NaCl, 10 mM Imidazole, 0.05% Tween-20) supplemented with Complete Mini protease inhibitor tablets (Roche, Mannheim, Germany) and […], and then sonicated. The cells were again pelleted and the supernatant was incubated with complete His-Tag purification resin (Roche, Mannheim, Germany) for 5 hours at 4° C. The resin was washed with Ni-wash buffer (50 mM Na2HPO4, 300 mM NaCl, 20 mM Imidazole, 0.05% Tween-20) and eluted with Ni-elution buffer (50 mM Na2HPO4, 300 mM NaCl, 250 mM Imidazole, 0.05% Tween-20). […]
Thermofluor Assay: SYPRO orange (Molecular Probes, Eugene, Oreg.) was diluted 1:1000 in 25 mM HEPES, 5 mM MgCl2, 10 mM KCl (pH 7.5) and purified Hsp70i, Hsc70, Hsp70i C306, or Hsp90, was then added to a final dilution of 0.04 mg/ml. […] A melt curve protocol (25° C. to 90° C., increasing 0.5° C. and a plate reading every 30 seconds) was run on a CFX384 Touch™ Real-Time PCR Detection System (BioRad). […]

[3] = system: PC12 cell line expressing httQ74-GFP; experiment: Aggregation assay, cell culture model of Huntington's disease; type: cell-based, rat; conditions: compared to untreated controls
Procedure: Aggregation Assay: The PC12 rat neuronal cell line, which expresses Huntingtin exon 1 containing 74 glutamine repeats is fused to GFP and under the control of a doxycycline promoter was used [Wyttenbach et al. (2001). Polyglutamine expansions cause decreased CRE-mediated transcription and early gene expression changes prior to cell death in an inducible cell model of Huntington's disease. Human molecular genetics 10, 1829-1845]. Cells were treated with HS-72 for 18 hours prior to a doxycycline addition for 48 hours. The soluble and pellet fraction were then separated by centrifugation at 14,000 rpm for 15 minutes and both fractions were assayed for httQ-GFP by solubilizing with SDS followed by western blotting with antibodies against GFP.

T1 sequence (P11142 whole entry): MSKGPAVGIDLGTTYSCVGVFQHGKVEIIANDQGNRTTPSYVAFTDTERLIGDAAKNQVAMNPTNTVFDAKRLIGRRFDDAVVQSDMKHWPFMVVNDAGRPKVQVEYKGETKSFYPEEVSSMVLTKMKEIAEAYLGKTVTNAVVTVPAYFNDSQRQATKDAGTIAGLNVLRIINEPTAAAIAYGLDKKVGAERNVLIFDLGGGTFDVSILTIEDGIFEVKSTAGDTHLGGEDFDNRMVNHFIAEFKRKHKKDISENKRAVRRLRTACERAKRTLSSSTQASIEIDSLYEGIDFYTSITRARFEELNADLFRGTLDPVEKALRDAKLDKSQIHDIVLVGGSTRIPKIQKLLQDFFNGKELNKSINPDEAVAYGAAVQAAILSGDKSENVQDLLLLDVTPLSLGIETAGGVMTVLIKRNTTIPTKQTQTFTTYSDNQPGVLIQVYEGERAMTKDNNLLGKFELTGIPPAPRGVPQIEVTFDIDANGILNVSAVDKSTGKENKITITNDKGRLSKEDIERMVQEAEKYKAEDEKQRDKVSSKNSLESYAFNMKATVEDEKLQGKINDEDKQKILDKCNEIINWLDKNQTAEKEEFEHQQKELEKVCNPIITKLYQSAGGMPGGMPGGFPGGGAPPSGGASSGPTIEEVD

CCCn1c(NC(=O)[C@H]2CCCN(c3cnccn3)C2)nc2ccccc21 [HS-72, (S)—N-(1-propyl-1H-benzo[d]imidazol-2-yl)-1-(pyrazin-2-yl)piperidine-3-carboxamide]
cell proliferation [1]: insensitive; also recorded: continue to grow at all concentrations
effect on Tm of Hsc70 [2]: does not change
increase of HttQ-GFP in the insoluble associated pellet fraction [3]: 50%
